Results: US20150065436A1, “INHIBITING INTERACTION BETWEEN HIF-1ALPHA AND p300/CBP WITH HYDROGEN BOND SURROGATE-BASED HELICES” (UNIVERSITY OF SOUTHERN CALIFORNIA, priority 2013, published 2015)

How the values were obtained:
HIF-1α = assay: Western blot analysis of HIF-1α levels; format: cell-based, human; conditions: HeLa cells, 10 μM, hypoxia mimicked with DFO 300 μM
Description: HeLa cells were plated in a 75 cm^2 culture flask and allowed to reach 70% confluence. Cells were treated with vehicle or HBS 1 at 10 μM concentration in the cell culture media containing 10% FBS. […] Cells were incubated for 6 hours and hypoxia was induced with 300 μM. DFO. After incubation for an additional 18 hours, cells were lysed and cytoplasmic and nuclear extracts were collected using a NE-PER kit (Pierce) according to the manufacturer's protocol and blotted as described in Dubey et al., “Suppression of Tumor Growth by Designed Dimeric Epidithiodiketopiperazine Targeting Hypoxia-Inducible Transcription Factor Complex,” J. Am. Chem. Soc. 135(11):4537-49 (2013), which is hereby incorporated by reference in its entirety.
To exclude the possibility that the observed down-regulation in the expression of hypoxia-inducible genes was due to a change in the levels of HIF-1α protein itself, a western blot analysis of HIF-1α was performed in hypoxic cells treated with HBS 1. […] As expected, the levels of induced HIF-1α protein were unaffected by treatment with HBS 1 (FIG. 16).

VEGF protein = assay: ELISA of secreted VEGF protein levels; format: cell-based, human; conditions: HeLa cells, 1 μM to 10 μM, DFO 300 μM
Description: The ability of HBS 1 and HBS 2 to inhibit hypoxia-induced transcription of target genes (VEGFA, SLC2A1/GLUT-1, and LOX) was evaluated employing real-time quantitative RT-PCR (qRT-PCR) assays. The data from the qRT-PCR experiments are presented in FIGS. 17A-D. HBS 1 reduced expression levels of VEGF by 50% at 10 μM and greater than 60% at 50 μM showing marked dose dependence. […] Next, it was determined whether this inhibition could be observed for other therapeutically relevant hypoxia-inducible genes. […] To rule out the possibility that the compounds are only efficacious under DFO mimicked hypoxia, the efficacies of the HBS peptides in downregulating VEGF gene expression were compared under two different hypoxia mimetic conditions: DFO and prolonged incubation in an anaerobic pouch. […] Next, the effect of HBS 1 treatment on the levels of secreted VEGF protein was assessed.

15N-labelled p300-CH1 = target: T1, 15N-labelled p300-CH1 (Homo sapiens, UniProt Q09472); assay: 1H-15N HSQC NMR titration; format: binding; conditions: 69 μM CH1, CH1:HBS 1 ratios 1:1, 1:3, 1:5, 1:10
T1 construct: human p300 CH1 domain (amino acid residues 323-423); GST (cleaved yes); made in house; host or cells: E. coli BL21 (DE3)
Description: Protein samples were prepared as described above. Uniformly ^15N-labelled p300-CH1 was concentrated to 69 μM in NMR buffer (10 mM Tris pH 8, 50 mM NaCl, 2 mM DTT, and 207 μM ZnSO4) using a 3 kDa MWCO Amicon Ultra centrifugal filter (Millipore) and supplemented with 5% D2O. For HSQC titration experiments, data was collected on a 600 MHz Bruker four-channel NMR system at 25° C. and analyzed with the TopSpin software (Bruker). For Zn^2+ experiments, data were collected on Agilent 600 MHz at 25° C. and analyzed using Sparky3 (Univ. of California).
For the HSQC titration experiments, five and ten molar equivalents of HBS 1 in DMSO were added to ^15N-labelled p300-CH1, and the data were collected as described above. Mean chemical shift difference (ΔδNH) observed for ^1H and ^15N nuclei of various resonances were calculated as described in Williamson, “Using Chemical Shift Perturbation to Characterise Ligand Binding,” Prog. Nucl. Mag. Resonance Spectr. […]
To further characterize the interaction of HBS 1 with the CH1 domain, ^1H-^15N HSQC NMR titration experiments were performed with uniformly ^15N-labeled CH1. […] This cleft includes Trp403 and chemical shift perturbations observed for this residue support the results of the fluorescence titration experiments. […]

T1 sequence (Q09472 323-423): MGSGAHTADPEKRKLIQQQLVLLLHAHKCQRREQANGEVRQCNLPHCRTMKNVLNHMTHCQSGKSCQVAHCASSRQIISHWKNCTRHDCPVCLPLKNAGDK

Question: How did the “levels of induced HIF-1α protein” value (HIF-1α) turn out when `CC(C)C[C@H](NC(=O)[C@H](C)NC(=O)[C@H](CCCNC(=N)N)NC(=O)[C@H](C)N1CC=CCCC(=O)N[C@@H](CCC(=O)O)C(=O)N[C@@H](CC(C)C)C1=O)C(=O)N[C@@H](CC(=O)O)C(=O)N[C@@H](CCC(N)=O)C(N)=O` [HBS 1, XELA*RALDQ-NH2] was run?
Answer: unaffected

Question: And the “secreted VEGF protein levels” value (VEGF protein)?
Answer: downregulates VEGF protein levels in HeLa cells in a dose-dependent manner

Question: And the “shift in CH1 resonances on addition of compound” value (15N-labelled p300-CH1)?
Answer: concentration-dependent shift in the resonances of several CH1 residues
